Experimental data: patent US6057314A, “Low molecular weight bicyclic thrombin inhibitors” (Biochem Pharma Inc., priority 1997, dated 2000)

Key:
human thrombin [1] = biological target: T1, human thrombin (Homo sapiens, UniProt P00734); test: dTT assay (fibrin clotting assay, human thrombin and bovine fibrinogen); format: biochemical; settings: Table 1; concentration required to double the clotting time; read-out: dTT IC50
Text: The clotting time was plotted against the inhibitor concentrations and the IC50 was estimated as the inhibitor concentration required to double the clotting time relative to the control.

human thrombin [2] = biological target: T1, human thrombin; test: Fibrin clot assay (human plasma, turbidity); format: biochemical; settings: Table 1, 1 nM thrombin, at 30 minutes
Procedure: The fibrin clot assay was performed essentially as described by Krtenansky et al, FEBS, 1987, 211:10. A serial dilution of the inhibitor was prepared in 50 mM tri HCl buffer (pH 7.8 at 23° C.) containing 0.1 M NaCl and 0.1% (w/v) polyethylene glycol 8000. Human plasma (60 μL, collected in 3.8% sodium citrate, blood/anticoagulate 9:1) was added to microtiter wells (microtiter plate, Falcon) containing 100 μL of various inhibitor dilutions. The solution was mixed after which 50 μL of human thrombin (1 nM final conc.) was added and mixed for 15 seconds. The turbidity of the clot was immediately monitored by microplate autoreader (Dynateck MR 5000) at 405 nm and recorded every 3 min. The maximal turbidity in the absence of inhibitors was reached within 60 min. IC50 values were calculated at 30 minutes as the inhibitor concentration that gave half the optical density of the control.

[3] = test system: washed platelets from rats; test: Platelet secretion (14C-serotonin, 5-HT, release from washed rat platelets, thrombin stimulated); format: cell-based; settings: Table 1, human thrombin 0.1 IU/mL, read-out: Antiplatelet activity, 5-HT Secretion (IC50)
Procedure: Platelet Aggregation and Secretion Rat blood was collected into ACD (6/1 v/v) by cardiac puncture. Suspensions of washed platelets were prepared as described by […] et al, (Br. J. Haematol. 1970, 19:7 and Proc. Soc. Exp. Biol. Med. 1971, 136:1021). […] Platelet counts were adjusted to 5000,000/ μL. To permit measurement of the extent of release of the contents of the dense granules, the platelets were labelled in the first washing solution with ^14 C-serotonin (5-HT) (1 μCi/10 mL of washing fluid) and release of ^14 C-serotonin was determined as described in Holmsen et al, (Enzymology, 1989, 169:206). […] (5 μM final conc.) was added to present the reuptake of released serotonin. Platelet aggregation was recorded at 37° C. in an aggregometer (BioData PAP-4) at a stirring speed of 1,100 rpm by measuring the variations of light transmission. […] IC50 values represent the concentration that was necessary to inhibit platelet aggregation or secretion to 50% of the control.

human thrombin [4] = biological target: T1, human thrombin; test: Inhibition of amidolytic activity of human thrombin (Ki, fluorogenic substrate Tos-Gly-Pro-Arg-AMC); format: biochemical; settings: Table 1, read-out: Ki (inhibitory dissociation constant for human thrombin)
Procedure: In an assay to determine the inhibitory dissociation constant, Ki, for a given compound, a chromogenic or fluorogenic substrate of thrombin would be added to a solution containing a test compound and thrombin; the resulting catalytic activity of the enzyme would be spectrophotometrically determined. This type of assay is well known to those skilled in the art.
Determination of K1 Values for Heterocyclics
The steady-state velocity was then measured for a few minutes. The compounds of this invention were also pre-incubated with thrombin for 20 minutes at room temperature before adding the substrate.

[5] = test system: washed platelets from rats; test: Platelet aggregation (washed rat platelets, thrombin stimulated); format: cell-based; settings: Table 1, suspension of washed platelets from rats, human thrombin 0.1 IU/mL, read-out: Antiplatelet activity, Aggregation (IC50)
Procedure: Platelet Aggregation and Secretion Rat blood was collected into ACD (6/1 v/v) by cardiac puncture. Suspensions of washed platelets were prepared as described by […] et al, (Br. J. Haematol. 1970, 19:7 and Proc. Soc. Exp. Biol. Med. 1971, 136:1021). […] Platelet counts were adjusted to 5000,000/ μL. Platelet aggregation was recorded at 37° C. in an aggregometer (BioData PAP-4) at a stirring speed of 1,100 rpm by measuring the variations of light transmission. […] IC50 values represent the concentration that was necessary to inhibit platelet aggregation or secretion to 50% of the control.

CC(SCC(=O)C(CCCNC(=N)N)NC(=O)[C@@H]1CSC2CC[C@@H](CC3CCCCC3)C(=O)N21)C(=O)O (stereo partly drawn) [Compound 0070, 6S-cyclohexylmethylhexahydro-5-oxo-5H-thiazolo[3,2-a]pyridine-3R-carboxamido(1-carboxy-2-methyl-3-thiobutylketoarginine)]
IC50 (human thrombin [1]): 25 µM
IC50 (human thrombin [2]): 78 µM
IC50 [3]: 2.1 µM
Ki (human thrombin [4]): 4.4 µM
IC50 [5]: 22 µM
